Test results reported in PMC12447755, “β-Lactamase cleavable antimicrobial peptide–drug conjugates” (Chemical Science, 2025).
Like-named read-outs stand apart in the source and are kept apart here. Where a SMILES comes first, the peptide text is derived from it.

Key:
[1] = test system: Pseudomonas aeruginosa strain PAO1; test: Initial susceptibility testing at a fixed concentration; type: cell-based; parameters: key: Tick (✓) represents OD600 comparable to no-growth control; cross (✗) represents OD600 comparable to growth control without any peptide; conditions: 256 μg mL−1 of peptide, overnight incubation, OD600 compared with growth and no-growth controls
[2] = test system: P. aeruginosa strain PA14
[3] = test system: P. aeruginosa strain PAO1
[4] = Table 2, broth microdilution in MH medium, 37 °C, 16 h, MTT and OD600, triplicate
[5] = Table S5, altered linking region between peptide and cephalosporin

Compound: CC(=O)N[C@H](C(=O)N[C@@H](CC(C)C)C(=O)N[C@@H](CCCCN)C(=O)N[C@@H](CCC(N)=O)C(=O)N[C@@H](Cc1ccccc1)C(=O)N[C@H]1CSCCc2cc(nc(NCCCc3ccccc3)n2)CCSC[C@@H](C(=O)N[C@H](C(=O)N[C@@H](CCCCN)C(N)=O)C(C)C)NC(=O)[C@H](Cc2c[nH]c3ccccc23)NC(=O)[C@H](CCCCN)NC(=O)CNC(=O)[C@H](C(C)C)NC(=O)CNC(=O)[C@H](CCCCN)NC1=O)[C@@H](C)O [P1-1] (HELM PEPTIDE1{[ac].T.L.K.Q.F.C.K.G.V.G.K.W.C.V.K.[am]}|CHEM1{[c1ccc(CCCNc2nc(CC[*:1])cc(CC[*:2])n2)cc1]}$PEPTIDE1,CHEM1,7:R3-1:R1|PEPTIDE1,CHEM1,14:R3-1:R2$$$V2.0)
- Inh (inhibition) [1]: ✗

Compound: C[C@@H]1NC(=O)[C@H](Cc2c[nH]c3ccccc23)NC(=O)[C@H](CCCCN)NC(=O)[C@@H](NC(=O)[C@@H](N)Cc2ccccc2)CSCCc2cc(nc(NCCCC(=O)N3CCN(c4cc5c(cc4F)c(=O)c(C(=O)O)cn5C4CC4)CC3)n2)CCSC[C@@H](C(=O)N[C@@H](CCCCN)C(=O)N[C@@H](CCCCN)C(N)=O)NC(=O)[C@H](Cc2c[nH]c3ccccc23)NC(=O)[C@H](CCCCN)NC(=O)[C@H](Cc2ccccc2)NC1=O [P2-12] (HELM PEPTIDE1{F.C.K.W.A.F.K.W.C.K.K.[am]}|CHEM1{[O=C(O)c1cn(C2CC2)c2cc(N3CCN(C(=O)CCCNc4nc(CC[*:1])cc(CC[*:2])n4)CC3)c(F)cc2c1=O]}$PEPTIDE1,CHEM1,2:R3-1:R1|PEPTIDE1,CHEM1,9:R3-1:R2$$$V2.0)
- MIC for PA14 [2, 4]: > 64 µg/mL
- MIC for PAO1 [3, 4]: > 64 µg/mL

Compound: C[C@@H]1NC(=O)[C@H](Cc2c[nH]c3ccccc23)NC(=O)[C@H](CCCCN)NC(=O)[C@@H](NC(=O)[C@@H](N)Cc2ccccc2)CSCCc2cc(nc(NCCCC(=O)NCCCCCC(=O)N[C@@H]3C(=O)N4C(C(=O)O)=C(COC(=O)N5CCN(c6cc7c(cc6F)c(=O)c(C(=O)O)cn7C6CC6)CC5)CS[C@H]34)n2)CCSC[C@@H](C(=O)N[C@@H](CCCCN)C(=O)N[C@@H](CCCCN)C(N)=O)NC(=O)[C@H](Cc2c[nH]c3ccccc23)NC(=O)[C@H](CCCCN)NC(=O)[C@H](Cc2ccccc2)NC1=O [P2-20]
- PA14 MIC ([2]; PA14, 18 h): 13 µM
- PA14 MIC ([2]; Table S5): 32 µg/mL
- PAO1 MIC ([3]; PAO1, 18 h): 13 µM
- PAO1 MIC [3, 5]: 32 µg/mL

Compound: C[C@@H]1NC(=O)[C@H](Cc2c[nH]c3ccccc23)NC(=O)[C@H](CCCCN)NC(=O)[C@@H](NC(=O)[C@@H](N)Cc2ccccc2)CSCCc2cc(nc(NCCCC(=O)N[C@@H](C(=O)N[C@@H]3C(=O)N4C(C(=O)O)=C(COC(=O)N5CCN(c6cc7c(cc6F)c(=O)c(C(=O)O)cn7C6CC6)CC5)CS[C@H]34)c3ccccc3)n2)CCSC[C@@H](C(=O)N[C@@H](CCCCN)C(=O)N[C@@H](CCCCN)C(N)=O)NC(=O)[C@H](Cc2c[nH]c3ccccc23)NC(=O)[C@H](CCCCN)NC(=O)[C@H](Cc2ccccc2)NC1=O [P2-21]
- PA14 MIC ([2]; PA14, 18 h): 13 µM
- PA14 MIC ([2]; Table S5): 32 µg/mL
- PAO1 MIC ([3]; PAO1, 18 h): 27 µM
- PAO1 MIC [3, 5]: 64 µg/mL

Compound: CC(=O)N[C@@H](Cc1c[nH]c2ccccc12)C(=O)N[C@H]1CSCCc2cc(nc(NCCCc3ccccc3)n2)CCSC[C@@H](C(=O)N[C@@H](Cc2ccccc2)C(N)=O)NC(=O)CNC(=O)[C@H](CCCNC(=N)N)NC(=O)[C@H](Cc2ccccc2)NC(=O)[C@H](CCCCN)NC(=O)[C@H](CCCCN)NC(=O)[C@H](CC(C)C)NC1=O [P3-1] (HELM PEPTIDE1{[ac].W.C.L.K.K.F.R.G.C.F.[am]}|CHEM1{[c1ccc(CCCNc2nc(CC[*:1])cc(CC[*:2])n2)cc1]}$PEPTIDE1,CHEM1,3:R3-1:R1|PEPTIDE1,CHEM1,10:R3-1:R2$$$V2.0)
- Inh (inhibition) [1]: ✗

Compound: CC[C@H](C)[C@H](NC(=O)[C@H](CCCCN)NC(=O)[C@H](CCCCN)NC(=O)[C@@H]1CSCCc2cc(nc(NCCCc3ccccc3)n2)CCSC[C@H](NC(=O)[C@H](CC(C)C)NC(=O)[C@H](CCCNC(=N)N)NC(=O)[C@H](CCCNC(=N)N)NC(=O)[C@H](Cc2ccccc2)NC(=O)[C@@H](N)CCCNC(=N)N)C(=O)N[C@@H](CCCCN)C(=O)N[C@@H](CCCCN)C(=O)N[C@@H](Cc2c[nH]c3ccccc23)C(=O)N[C@@H](CCCNC(=N)N)C(=O)N[C@@H](CCCCN)C(=O)N[C@@H](CCCNC(=N)N)C(=O)N1)C(N)=O [P4-1] (HELM PEPTIDE1{R.F.R.R.L.C.K.K.W.R.K.R.C.K.K.I.[am]}|CHEM1{[c1ccc(CCCNc2nc(CC[*:1])cc(CC[*:2])n2)cc1]}$PEPTIDE1,CHEM1,6:R3-1:R1|PEPTIDE1,CHEM1,13:R3-1:R2$$$V2.0)
- Inh (inhibition) [1]: ✓

Compound: CC[C@H](C)[C@H](NC(=O)[C@H](CCCCN)NC(=O)[C@H](CCCCN)NC(=O)[C@H](CS)NC(=O)[C@H](CCCNC(=N)N)NC(=O)[C@H](CCCCN)NC(=O)[C@H](CCCNC(=N)N)NC(=O)[C@H](Cc1c[nH]c2ccccc12)NC(=O)[C@H](CCCCN)NC(=O)[C@H](CCCCN)NC(=O)[C@H](CS)NC(=O)[C@H](CC(C)C)NC(=O)[C@H](CCCNC(=N)N)NC(=O)[C@H](CCCNC(=N)N)NC(=O)[C@H](Cc1ccccc1)NC(=O)[C@@H](N)CCCNC(=N)N)C(N)=O [P4] (H-RFRRLCKKWRKRCKKI-NH2)
- Inh (inhibition) [1]: ✗

Compound: CCCCCCCC(=O)NCC(=O)N[C@H]1CSCCc2cc(nc(NCCCc3ccccc3)n2)CCSC[C@@H](C(=O)N[C@@H](CC(C)C)C(N)=O)NC(=O)[C@H](CCCCN)NC(=O)[C@H](CCCCN)NC(=O)[C@H]([C@@H](C)CC)NC(=O)[C@H](Cc2ccccc2)NC(=O)[C@H](CCCCN)NC(=O)[C@H](CC(C)C)NC1=O [P5-1] (HELM PEPTIDE1{[CCCCCCCC(=O)[*:2]].G.C.L.K.F.I.K.K.C.L.[am]}|CHEM1{[c1ccc(CCCNc2nc(CC[*:1])cc(CC[*:2])n2)cc1]}$PEPTIDE1,CHEM1,3:R3-1:R1|PEPTIDE1,CHEM1,10:R3-1:R2$$$V2.0)
- Inh (inhibition) [1]: ✗

Compound: CC(=O)OCC1=C(C(=O)O)N2C(=O)[C@@H](NC(=O)CCCNc3nc4cc(n3)CCSC[C@H](N)C(=O)N[C@@H](C)C(=O)N[C@@H](CCCCN)C(=O)N[C@@H](Cc3c[nH]c5ccccc35)C(=O)N[C@@H](C)C(=O)N[C@@H](Cc3ccccc3)C(=O)N[C@@H](CCCCN)C(=O)N[C@H](C(=O)N[C@@H](CC(C)C)C(=O)N[C@@H](CCCCN)C(=O)N[C@@H](CCCCN)C(N)=O)CSCC4)[C@H]2SC1 [P8-8]
- PA14 MIC ([2]; PA14, 18 h): > 35 µM
- PAO1 MIC ([3]; PAO1, 18 h): > 35 µM

Compound: CC(=O)OCC1=C(C(=O)O)N2C(=O)[C@@H](NC(=O)CCCNc3nc4cc(n3)CCSC[C@H](NC(=O)[C@H](Cc3c[nH]c5ccccc35)NC(=O)[C@H](CCCCN)NC(=O)[C@H](C)NC(=O)[C@@H](N)Cc3ccccc3)C(=O)N[C@@H](Cc3ccccc3)C(=O)N[C@@H](CCCCN)C(=O)N[C@@H](Cc3c[nH]c5ccccc35)C(=O)N[C@@H](CC(C)C)C(=O)N[C@@H](CCCCN)C(=O)N[C@@H](CCCCN)C(=O)N[C@H](C(N)=O)CSCC4)[C@H]2SC1 [P9-8]
- PA14 MIC ([2]; PA14, 18 h): 31 µM
- PAO1 MIC ([3]; PAO1, 18 h): > 31 µM

Compound: CC(=O)OCC1=C(C(=O)O)N2C(=O)[C@@H](NC(=O)CCCNc3nc4cc(n3)CCSC[C@H](NC(=O)[C@H](CCCCN)NC(=O)[C@H](C)NC(=O)[C@@H](N)Cc3ccccc3)C(=O)N[C@@H](C)C(=O)N[C@@H](Cc3ccccc3)C(=O)N[C@@H](CCCCN)C(=O)N[C@@H](Cc3c[nH]c5ccccc35)C(=O)N[C@@H](CC(C)C)C(=O)N[C@@H](CCCCN)C(=O)N[C@H](C(N)=O)CSCC4)[C@H]2SC1 [P10-8]
- PA14 MIC ([2]; PA14, 18 h): > 35 µM
- PAO1 MIC ([3]; PAO1, 18 h): > 35 µM

Compound: CC(=O)OCC1=C(C(=O)O)N2C(=O)[C@@H](NC(=O)CCCNc3nc4cc(n3)CCSC[C@H](N)C(=O)N[C@@H](Cc3ccccc3)C(=O)N[C@@H](C)C(=O)N[C@@H](CCCCN)C(=O)N[C@@H](Cc3c[nH]c5ccccc35)C(=O)N[C@@H](C)C(=O)N[C@@H](Cc3ccccc3)C(=O)N[C@H](C(=O)N[C@@H](Cc3c[nH]c5ccccc35)C(=O)N[C@@H](CC(C)C)C(=O)N[C@@H](CCCCN)C(=O)N[C@@H](CCCCN)C(N)=O)CSCC4)[C@H]2SC1 [P11-8]
- PA14 MIC ([2]; PA14, 18 h): > 32 µM
- PAO1 MIC ([3]; PAO1, 18 h): > 32 µM

Compound: CC(=O)OCC1=C(C(=O)O)N2C(=O)[C@@H](NC(=O)CCCNc3nc4cc(n3)CCSC[C@H](NC(=O)[C@H](CCCCN)NC(=O)[C@H](C)NC(=O)[C@H](Cc3ccccc3)NC(=O)[C@@H](N)CCCCN)C(=O)N[C@@H](C)C(=O)N[C@@H](Cc3ccccc3)C(=O)N[C@@H](CCCCN)C(=O)N[C@@H](Cc3c[nH]c5ccccc35)C(=O)N[C@@H](CC(C)C)C(=O)N[C@@H](CCCCN)C(=O)N[C@H](C(N)=O)CSCC4)[C@H]2SC1 [P12-8]
- PA14 MIC ([2]; PA14, 18 h): > 33 µM
- PAO1 MIC ([3]; PAO1, 18 h): > 33 µM

Compound: CC[C@H](C)CCCCC(=O)N[C@@H](CCN)C(=O)N[C@H](C(=O)N[C@@H](CCN)C(=O)N[C@H]1CCNC(=O)[C@H]([C@@H](C)O)NC(=O)[C@H](CCN)NC(=O)[C@H](CCN)NC(=O)[C@H](CC(C)C)NC(=O)[C@@H](Cc2ccccc2)NC(=O)[C@H](CCN)NC1=O)[C@@H](C)O [Polymyxin B, reference compound] (HELM PEPTIDE1{[CC[C@H](C)CCCCC(=O)[*:2]].[Dab].T.[Dab].[Dab].[Dab].[dF].L.[Dab].[Dab].T}$PEPTIDE1,PEPTIDE1,5:R3-11:R2$$$V2.0; N-terminus assumed; bridges inferred)
- MIC for PA14 ([2]; PA14, 18 h): 0.83 µM
- PA14 MIC ([2]; Table S3, initial MIC values): 1 µg/mL
- PA14 MIC ([2]; Table S4): 0.83 µM
- MIC for PAO1 ([3]; PAO1, 18 h): 1.7 µM
- PAO1 MIC ([3]; PAO1, 18 h): 0.83 µM
- PAO1 MIC ([3]; Table S3, initial MIC values): 2 µg/mL
- PAO1 MIC ([3]; Table S4, cephalosporin-based staple 8 at different positions): 1 µg/mL
